Assay results from PubChem BioAssay (NCI).
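Step 1: Grow cells in 96-well plates. Step 2: Expose to compound for 48 hours at 5 concentrations. Step 3: Interpolate endpoints linearly; if unreached, use highest concentration. At the TGI there is no net growth.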

Tests used:
Test in all cases: NCI anticancer screen, dose series, 48 h
DLD-1 colon = test system: DLD-1 colon
KM20L2 colon = test system: KM20L2 colon
LXFL 529 NSCLC = test system: LXFL 529 NSCLC
M19-MEL melanoma = test system: M19-MEL melanoma
RXF-631 renal = test system: RXF-631 renal
SNB-78 CNS = test system: SNB-78 CNS
XF 498 CNS = test system: XF 498 CNS
DMS 114 small cell lung = test system: DMS 114 small cell lung
HOP-18 NSCLC = test system: HOP-18 NSCLC

Compound | TGI (DLD-1 colon) [µM] | TGI (KM20L2 colon) [µM] | TGI (LXFL 529 NSCLC) [µM] | TGI (M19-MEL melanoma) [µM] | TGI (RXF-631 renal) [µM] | TGI (SNB-78 CNS) [µM] | TGI (XF 498 CNS) [µM] | TGI (DMS 114 small cell lung) [µM] | TGI (HOP-18 NSCLC) [µM]
CC(C)COC(=O)c1ccc(N=Cc2ccc(C=Nc3ccc(C(=O)OCC(C)C)cc3)cc2)cc1 | > 100 | > 100 | > 100 | > 100 | > 100 | > 100 | > 100 | – | –
O=S1(=O)OCCOS(=O)(=O)C1(Cl)Cl | > 100 | – | > 100 | > 100 | > 100 | > 100 | > 100 | > 100 | –
O=C1C[C@@H]2[C@@H](CCC23CCCC3)N1 | > 100 | > 100 | > 100 | > 100 | – | > 100 | – | – | > 100
O=C1C(Cl)=C(N2CCN(CCOCCO)CC2)C(=O)c2ccccc21 | – | 32.2 | 3.37 | 14.6 | – | 32.3 | 5.81 | – | 29.9
CC(=O)NNc1nc(C)c(C(/C=C/c2ccc(Cl)cc2)=N\N=C(N)N)s1 | > 100 | > 100 | > 100 | > 100 | > 100 | > 100 | > 100 | – | –
O=C1N=CN=C2C=CC(Cl)=C(I)C12 (configuration not stated) | > 100 | > 100 | > 100 | > 100 | – | – | > 100 | > 100 | –
O=C(CSc1nnc(Cc2ccccc2)o1)Nc1ccc(Cl)cc1[N+](=O)[O-] | – | 45.9 | 40.8 | 34.8 | – | 47.6 | 31.3 | – | 28.3
CN1C(=S)CSc2ccccc21 | > 100 | > 100 | > 100 | > 100 | – | > 100 | > 100 | > 100 | –
COC(=O)C1CC(c2ccc(Cl)cc2)=NO1 (configuration not stated) | > 100 | > 100 | > 100 | > 100 | – | > 100 | – | > 100 | > 100
Cc1cc(N(CCC#N)CCC#N)ccc1/C=C1N=C(/C=C/c2ccccc2)N(c2ccc(S(N)(=O)=O)cc2)C\1=O | > 100 | > 100 | > 100 | > 100 | > 100 | > 100 | – | > 100 | –
COc1ccc(Cc2cc(OC)c(OC)c(OC)c2)cc1 | > 100 | – | > 100 | > 100 | – | > 100 | – | – | –
C=CCOC1CC(n2cnc3c(N)ncnc32)OC1CO (configuration not stated) | > 100 | > 100 | > 100 | > 100 | – | – | > 100 | > 100 | –
CC1OC(OC2C(OC(=O)[C@]34CCC(C)(C)CC3C3=CCC5[C@@]6(C)C[C@H](O)[C@H](OC7OC(COC8OC(CO)C(O)C(O)C8O)C(O)C(O)C7O)[C@@](C)(C(=O)O)C6CC[C@@]5(C)C3(C)CC4)OCC(O)C2O)C(O)C(O)C1OC1OCC(O)C(O)C1O (some centres not stated) | > 100 | > 100 | – | > 100 | – | > 100 | – | > 100 | > 100
